# In patent US7268152B2, “Glucocorticoid mimetics, methods of making them, pharmaceutical compositions, and uses thereof” (Boehringer Ingelheim Pharmaceuticals, Inc., priority 2002, dated 2007):
# Tested on: glucocorticoid receptor
# Assay: One or more of the above assays (GR binding and GR cell assays; not specified which)
# Type: cell-based
# Conditions: in one or more of the above assays
# Description: This assay uses fluorescence polarization (FP) to quantitate the ability of test compounds to compete with tetramethyl rhodamine (TAMRA)-labeled dexamethasone for binding to a human glucocorticoid receptor (GR) complex prepared from an insect expression system. The assay buffer was: 10 mM TES, 50 mM KCl, 20 mM Na2MoO4.2H2O, 1.5 mM EDTA, 0.04% w/v CHAPS, 10% v/v glycerol, 1 mM dithiothreitol, pH 7.4. Test compounds were dissolved to 1 mM in neat DMSO and then further diluted to 10×assay concentration in assay buffer supplemented with 10% v/v DMSO. Test compounds were serially diluted at 10×assay concentrations in 10% DMSO-containing buffer in 96-well polypropylene plates. […] Positive controls were reaction mixtures containing no test compound; negative controls (blanks) were reaction mixtures containing 0.7 μM to 2 μM dexamethasone. […] IC50 values were determined by iterative non-linear curve fitting of the FP signal data to a 4-parameter logistic equation.
# B. Glucocorticoid Receptor Cell Assays
# 1. Induction of Aromatase in Fibroblasts (Cell Assay for Transactivation)
# Dexamethasone, a synthetic ligand to the glucocorticoid receptor (GR), induces expression of aromatase in human foreskin fibroblast cells. The activity of aromatase is measured by the conversion of testosterone to estradiol in culture media.
# On the day of the experiment, the media in the wells is replaced with fresh media. Cells are treated with test compounds to final concentrations of 10^−5 M to 10 ^−8 M, and testosterone to a final concentration of 300 ng/mL. Each well has a total volume of 100 μL. Samples are made in duplicates. Control wells include: (a) wells that receive testosterone only, and (b) wells that receive testosterone plus 2 μM of dexamethasone to provide maximum induction of aromatase. Plates are incubated at 37° C. overnight (15 to 18 hours), and supernatants are harvested at the end of incubation. […] The amount of estradiol is inversely proportional to the ELISA signals in each well. The extent of aromatase induction by test compounds is expressed as a relative percentage to dexamethasone. EC50 values of test compounds are derived by non-linear curve fitting.
# 2. Inhibition of IL-6 Production in Fibroblasts (Cell Assay for Transrepression)
# Human foreskin fibroblast cells produce IL-6 in response to stimulation by pro-inflammatory cytokine IL-1.
# On the next day, media in the wells is replaced with fresh media. Cells are treated with IL-1 (rhIL-1α, R&D Systems Cat. No. 200-LA) to a final concentration of 1 ng/mL, and with test compounds to final concentrations of 10 ^−5 M to 10 ^−8 M, in a total volume of 200 μL per well. Samples are done in duplicates. […] Positive control wells receive IL-1 only and represent maximum (or 100%) amount of IL-6 production. Plates are incubated at 37° C. overnight (15 to 18 hours), and supernatants are harvested at the end of incubation. IL-6 levels in the supernatants are determined by the ELISA kits for IL-6 (MedSystems Diagnostics GmbH, Vienna, Austria, Cat. No. BMS213TEN) according to manufacture's instructions. The extent of inhibition of IL-6 by test compounds is expressed in percentage relative to positive controls. IC50 values of test compounds are derived by non-linear curve fitting.
# Evaluation of agonist or antagonist activity of compounds binding to the glucocorticoid receptor may be determined by any of the assays.
# 3. Modulation of Tyrosine Aminotransferase (TAT) Induction in Rat Hepatoma Cells
# Testing of compounds for agonist or antagonist activity in induction of tyrosine aminotransferase (TAT) in rat hepatoma cells.
# H4-II-E-C3 cells were incubated overnight in 96 well plates (20,000 cells/100 μL/well) in MEM medium containing 10% heat inactivated FBS and 1% nonessential amino acids. On the next day, cells were stimulated with the indicated concentrations of dexamethasone or test compound (dissolved in DMSO, final DMSO concentration 0.2%) for 18 hours. Control cells were treated with 0.2% DMSO.
row,SMILES,activity as agonists of the glucocorticoid receptor function
1,COc1ccc(F)cc1C(C)(C)CC(O)(Cc1ccc(/C(C)=N/O)cc1Cl)C(F)(F)F (centres unmarked) [1-{3-Chloro-4-[4-(5-fluoro-2-methoxyphenyl)-2-hydroxy-4-methyl-2-trifluoromethylpentyl]phenyl}ethanone oxime],activity as agonists
2,CC(C)(CC(O)(Cc1ccc(C#N)cc1Cl)C(F)(F)F)c1ccc(C(F)(F)F)cc1 (centres unmarked) [3-Chloro-4-[2-hydroxy-4-methyl-2-trifluoromethyl-4-(4-trifluoromethylphenyl)pentyl]benzonitrile],activity as agonists
3,"COc1ccc(F)cc1C(C)(C)CC(O)(Cc1ccc(CO)cc1Cl)C(F)(F)F (centres unmarked) [2-(2-Chloro-4-hydroxymethylbenzyl)-1,1,1-trifluoro-4-(5-fluoro-2-methoxyphenyl)-4-methylpentan-2-ol]",activity as agonists
4,"COc1cc(OC)cc(C(C)(C)CC(O)(Cc2ccc(C#N)cc2Cl)C(F)(F)F)c1 (centres unmarked) [3-Chloro-4-[4-(3,5-dimethoxyphenyl)-2-hydroxy-4-methyl-2-trifluoromethylpentyl]benzonitrile]",activity as agonists
5,CC(C)(CC(O)(Cc1ccc(C#N)cc1Cl)C(F)(F)F)c1cccc(C(F)(F)F)c1 (centres unmarked) [3-Chloro-4-[2-hydroxy-4-methyl-2-trifluoromethyl-4-(3-trifluoromethylphenyl)pentyl]benzonitrile],activity as agonists
6,COc1cccc(C(C)(C)CC(O)(Cc2ccc(C#N)cc2Cl)C(F)(F)F)c1 (centres unmarked) [3-Chloro-4-[2-hydroxy-4-(3-methoxyphenyl)-4-methyl-2-trifluoromethylpentyl]benzonitrile],activity as agonists
7,Cc1cccc(C(C)(C)CC(O)(Cc2ccc(C#N)cc2Cl)C2CC2)c1 (centres unmarked) [3-Chloro-4-[2-cyclopropyl-2-hydroxy-4-methyl-4-(3-methylphenyl)pentyl]benzonitrile],activity as agonists
8,CC(C)(CC(O)(Cc1ccc(C#N)cc1Cl)C(F)(F)F)c1ccc(F)cc1 (centres unmarked) [3-Chloro-4-[4-(4-fluorophenyl)-2-hydroxy-4-methyl-2-trifluoromethylpentyl]benzonitrile],activity as agonists
9,CCc1cccc(C(C)(C)CC(O)(Cc2ccc(C#N)cc2Cl)C(F)(F)F)c1O (centres unmarked) [3-Chloro-4-[4-(3-ethyl-2-hydroxyphenyl)-2-hydroxy-4-methyl-2-trifluoromethylpentyl]benzonitrile],activity as agonists
10,"N#Cc1ccc(CC(O)(CC2(c3cc(F)ccc3O)CC2)C(F)(F)F)c(Cl)c1 (centres unmarked) [3-Chloro-4-{3,3,3-trifluoro-2-[1-(5-fluoro-2-hydroxyphenyl)cyclopropylmethyl]-2-hydroxypropyl}benzonitrile]",activity as agonists
11,COc1ccc(F)cc1C(C)(C)CC(O)(Cc1ccc(C=O)cc1Cl)C(F)(F)F (centres unmarked) [3-Chloro-4-[4-(5-fluoro-2-methoxyphenyl)-2-hydroxy-4-methyl-2-trifluoromethylpentyl]benzaldehyde],activity as agonists
12,"CC(C)(CC(O)(Cc1ccc(C#N)cc1Cl)C1CC1)c1cccc2c1OCC2 (centres unmarked) [3-Chloro-4-[2-cyclopropyl-4-(2,3-dihydrobenzofuran-7-yl)-2-hydroxy-4-methylpentyl]benzonitrile]",activity as agonists
13,"COc1ccc(F)cc1C1(CC(O)(Cc2ccc(C#N)cc2Cl)C(F)(F)F)CC1 (centres unmarked) [3-Chloro-4-{3,3,3-trifluoro-2-[1-(5-fluoro-2-methoxyphenyl)cyclopropylmethyl]-hydroxypropyl}benzonitrile]",activity as agonists
14,CC(C)(CC(O)(Cc1ccc(C#N)cc1Cl)C(F)(F)F)c1cc(F)ccc1O (centres unmarked) [3-Chloro-4-[4-(5-fluoro-2-hydroxyphenyl)-2-hydroxy-4-methyl-2-trifluoromethylpentyl]benzonitrile],activity as agonists
15,COc1c(C(C)(C)CC(O)(Cc2ccc(C#N)cc2Cl)C(F)(F)F)ccc2ccccc12 (centres unmarked) [3-Chloro-4-[2-hydroxy-4-(1-methoxynaphthalen-2-yl)-4-methyl-2-trifluoromethylpentyl]benzonitrile],activity as agonists
16,"CC(C)(CC(O)(Cc1ccc(C#N)cc1Cl)C(F)(F)F)c1ccc2c(c1)CCO2 (centres unmarked) [3-Chloro-4-[4-(2,3-dihydrobenzofuran-5-yl)-2-hydroxy-4-methyl-2-trifluoromethylpentyl]benzonitrile]",activity as agonists
17,"COc1ccc(F)cc1C(C)(C)CC(O)(Cc1ccc(Cl)cc1)C(F)(F)F (centres unmarked) [2-(4-Chlorobenzyl)-1,1,1-trifluoro-4-(5-fluoro-2-methoxyphenyl)-4-methylpentan-2-ol]",activity as agonists
18,"CC(C)(CC(O)(Cc1ccc(C(=O)C2CC2)cc1Cl)C1CC1)c1cccc2c1OCC2 (centres unmarked) [{3-Chloro-4-[2-cyclopropyl-4-(2,3-dihydrobenzofuran-7-yl)-2-hydroxy-4-methylpentyl]phenyl}cyclopropylmethanone]",activity as agonists
19,"COc1ccc(F)cc1C(C)(C)CC(O)(Cc1cc(C)cc(C)c1C#N)C(F)(F)F (centres unmarked) [2-[4-(5-Fluoro-2-methoxyphenyl)-2-hydroxy-4-methyl-2-trifluoromethylpentyl]-4,6-dimethylbenzonitrile]",activity as agonists
20,COc1cc(F)ccc1C(C)(C)CC(O)(Cc1ccc(C#N)cc1Cl)C(F)(F)F (centres unmarked) [3-Chloro-4-[4-(4-fluoro-2-methoxyphenyl)-2-hydroxy-4-methyl-2-trifluoromethylpentyl]benzonitrile],activity as agonists
21,"CC(C)(CC(O)(Cc1cc(C(F)(F)F)cc(Cl)c1F)C(F)(F)F)c1cc(Br)cc2c1OCC2 (centres unmarked) [4-(5-Bromo-2,3-dihydrobenzofuran-7-yl)-2-(3-chloro-2-fluoro-5-trifluoromethylbenzyl)-1,1,1-trifluoro-4-methylpentan-2-ol]",activity as agonists
22,"COc1ccc(F)cc1C(C)(C)CC(O)(Cc1ccc(Cl)c(Cl)c1)C(F)(F)F (centres unmarked) [2-(3,4-Dichlorobenzyl)-1,1,1-trifluoro-4-(5-fluoro-2-methoxyphenyl)-4-methylpentan-2-ol]",activity as agonists
23,"CC(C)(CC(O)(Cc1ccc(C#N)c2ccccc12)C(F)(F)F)c1cccc2c1OCC2 (centres unmarked) [4-[4-(2,3-Dihydrobenzofuran-7-yl)-2-hydroxy-4-methyl-2-trifluoromethylpentyl]naphthalene-1-carbonitrile]",activity as agonists
24,"Cc1cc(Br)cc(CC(O)(CC(C)(C)c2cc(F)ccc2O)C(F)(F)F)c1F (centres unmarked) [2-[3-(5-Bromo-2-fluoro-3-methylbenzyl)-4,4,4-trifluoro-3-hydroxy-1,1-dimethylbutyl]-4-fluorophenol]",activity as agonists
25,Cc1ccccc1C(C)(C)CC(O)(Cc1ccc(C#N)cc1Cl)C(F)(F)F (centres unmarked) [3-Chloro-4-(2-hydroxy-4-methyl-4-o-tolyl-2-trifluoromethylpentyl)benzonitrile],activity as agonists
26,"Cc1cc(C)c(C#N)c(CC(O)(CC(C)(C)c2cc(F)ccc2O)C(F)(F)F)c1 (centres unmarked) [2-[4-(5-Fluoro-2-hydroxyphenyl)-2-hydroxy-4-methyl-2-trifluoromethylpentyl]-4,6-dimethylbenzonitrile]",activity as agonists
